For data set [1] the following is noted: ref [46]; cited from earlier work.
For data set [2], the target named is T1, CYP3A7 (Homo sapiens, UniProt P24462). As to conditions: ref [18], cited from earlier work.
For data set [3] the following is noted: cited from earlier work; for DMS AUC Observed / Sildenafil AUC Observed: geometric mean.
The subject of data set [4] is plasma protein (AAG). The conditions noted are these: cited from earlier work; for fu, predominant plasma binding protein: AAG, ref [15],[16].
Data set [5] has as its target T2, CYP3A4 (Homo sapiens, UniProt P08684). The conditions noted are these: cited from earlier work.
Data set [6] concerns the target T3, CYP3A5 (Homo sapiens, UniProt P20815). The conditions noted are these: cited from earlier work.
The conditions of data set [7]: with vs without ritonavir; day 8; cited from earlier work.
The nature of data set [8]: Adult sildenafil/DMS PBPK population simulations. Further details: species or system human.
Data set [9] concerns the target T1, CYP3A7. Put plainly: Fluconazole inhibition of 6β-hydroxytestosterone formation, recombinant CYP3A7. It is filed as biochemical.
Data set [10] addresses T2, CYP3A4. Put plainly: Fluconazole inhibition of 6β-hydroxytestosterone formation, recombinant CYP3A4. In kind it is biochemical.
The target of data set [11] is T3, CYP3A5. The experiment in a line: Fluconazole inhibition of 6β-hydroxytestosterone formation, recombinant CYP3A5. In kind it is biochemical.
Data set [12] has as its system CYP3A4/5/7. As to conditions: read-out: KM CYP3A4/5/7 sink; remainder of sildenafil metabolites; fixed; ref [27]; cited from earlier work.
Data set [13] has as its system CYP2C9. The conditions noted are these: DMS formation, ref [12], cited from earlier work.
For data set [14] the following is noted: PopPK, cited from earlier work.
Data set [15] relates to phosphodiesterase type 5. As to conditions: ref [37], cited from earlier work.
For data set [16] the following is noted: children 1 to 17 years; low dose 10 mg in children > 20 kg; ref [24]; cited from earlier work.
For data set [17] the following is noted: cited from earlier work; for sildenafil clearance (CL): 36 term neonates, i.v. sildenafil; for Sildenafil CL Observed / Sildenafil Vss Observed: PopPK typical value scaled to 70 kg.
For data set [18] the following is noted: adults with pulmonary arterial hypertension; ref [44]; cited from earlier work.

Consider three compounds from publication PMC8138939 (Clinical pharmacology and therapeutics, 2020).

Where two headings read alike, the source gives them in different places. Marks after values point to notes of the source that are not given here.

A word on the pKa: it is the negative logarithm of the acid dissociation constant. One may read the Ki as a measure of affinity in units of concentration, obtained from inhibition or displacement.

T2 sequence (P08684 2-503 limits assumed): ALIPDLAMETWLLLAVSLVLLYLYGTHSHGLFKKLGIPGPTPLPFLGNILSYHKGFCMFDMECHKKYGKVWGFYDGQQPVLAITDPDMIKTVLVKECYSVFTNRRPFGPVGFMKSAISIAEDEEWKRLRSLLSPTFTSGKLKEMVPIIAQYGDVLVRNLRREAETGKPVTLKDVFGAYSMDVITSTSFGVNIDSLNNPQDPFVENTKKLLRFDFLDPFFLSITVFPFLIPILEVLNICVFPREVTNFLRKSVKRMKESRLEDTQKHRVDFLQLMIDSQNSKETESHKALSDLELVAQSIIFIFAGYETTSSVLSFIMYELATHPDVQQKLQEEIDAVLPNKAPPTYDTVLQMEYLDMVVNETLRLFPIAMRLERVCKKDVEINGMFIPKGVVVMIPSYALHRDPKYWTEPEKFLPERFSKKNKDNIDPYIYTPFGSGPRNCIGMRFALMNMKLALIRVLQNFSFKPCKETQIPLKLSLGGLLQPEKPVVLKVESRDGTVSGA
T3 sequence (P20815 whole entry): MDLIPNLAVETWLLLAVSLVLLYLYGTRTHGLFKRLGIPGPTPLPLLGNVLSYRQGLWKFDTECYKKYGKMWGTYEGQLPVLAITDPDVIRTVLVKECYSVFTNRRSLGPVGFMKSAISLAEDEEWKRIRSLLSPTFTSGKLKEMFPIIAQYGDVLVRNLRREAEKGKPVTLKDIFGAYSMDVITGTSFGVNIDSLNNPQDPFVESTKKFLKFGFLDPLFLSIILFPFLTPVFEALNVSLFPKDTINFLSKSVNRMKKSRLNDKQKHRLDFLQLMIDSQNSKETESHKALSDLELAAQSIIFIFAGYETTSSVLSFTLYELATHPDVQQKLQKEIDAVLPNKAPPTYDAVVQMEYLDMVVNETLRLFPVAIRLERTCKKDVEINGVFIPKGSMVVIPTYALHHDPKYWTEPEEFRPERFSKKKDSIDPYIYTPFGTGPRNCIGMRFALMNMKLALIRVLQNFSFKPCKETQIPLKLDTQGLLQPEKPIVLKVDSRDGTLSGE
T1 sequence (P24462 whole entry): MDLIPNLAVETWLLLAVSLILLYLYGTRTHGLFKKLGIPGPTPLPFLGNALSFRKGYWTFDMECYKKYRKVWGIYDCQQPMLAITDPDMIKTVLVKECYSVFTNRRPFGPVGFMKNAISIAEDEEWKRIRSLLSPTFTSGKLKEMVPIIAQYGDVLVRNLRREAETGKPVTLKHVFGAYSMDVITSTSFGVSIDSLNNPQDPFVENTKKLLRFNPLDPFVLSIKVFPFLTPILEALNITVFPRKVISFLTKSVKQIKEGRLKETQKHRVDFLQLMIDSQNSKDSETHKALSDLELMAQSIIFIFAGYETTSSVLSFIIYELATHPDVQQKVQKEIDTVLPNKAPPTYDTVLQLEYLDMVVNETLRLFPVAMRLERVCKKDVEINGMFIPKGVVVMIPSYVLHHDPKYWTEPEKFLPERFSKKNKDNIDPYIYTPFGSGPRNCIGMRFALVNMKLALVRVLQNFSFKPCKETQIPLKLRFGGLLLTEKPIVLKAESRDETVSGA

As for `CCCc1nn(C)c2c(=O)[nH]c(-c3cc(S(=O)(=O)N4CCNCC4)ccc3OCC)nc12` [DMS, N-desmethylsildenafil], the Water solubility in data set [1] was 419 µg/mL. In addition, in data set [1], the pKa is on record as 7.16. The “in vitro formation kinetic intrinsic clearance (CLint) for DMS” value in [2] (CYP3A7) is 0.079 μL/min/pmol CYP3A; in data set [5] (CYP3A4, ref [18]), 0.733 μL/min/pmol CYP3A; in data set [6] (CYP3A5, ref [18]), 0.788 μL/min/pmol CYP3A. In addition, the “DMS AUC Observed” value is 147 ng·h/mL in data set [3] (25 mg sildenafil single oral dose, AUC0–∞, ref [47]); 328 ng·h/mL in data set [3] (50 mg sildenafil single oral dose, AUC0–∞, ref [47]); 776 ng·h/mL in [3] (100 mg sildenafil single oral dose, AUC0–∞, ref [47]); 1822 ng·h/mL in data set [3] (200 mg sildenafil single oral dose, AUC0–∞, ref [47]); 147 ng·h/mL in data set [3] (sildenafil 25 mg/25-minute infusion i.v., AUC0–∞, ref [13]). In addition, in data set [4], the “fu, predominant plasma binding protein” value was 0.04 (AAG). Also, the “DMS AUC0-24 Fold Change observed” value in data set [7] is 1.7. In addition, the “DMS AUC Ratio simulated/observed” value in data set [8] (25 mg sildenafil single oral dose) was 1.01; in [8] (50 mg sildenafil single oral dose) it was 0.94; in [8] (100 mg sildenafil single oral dose), 0.85; in data set [8] (200 mg sildenafil single oral dose), 0.79; in data set [8] (sildenafil 25 mg/25-minute infusion i.v.), 1.87.

For the compound `OC(Cn1cncn1)(Cn1cncn1)c1ccc(F)cc1F` [Fluconazole, fluconazole], the Alpha is on record as 13.5 (1.8–∞) in data set [9] (mixed model, value (90% CI)); 16.6 (6.1–178) in [10] (mixed model, value (90% CI)); 2.6 (0.5–13.9) in data set [11] (mixed model, value (90% CI)). Further, the Inhibition type result in data set [9] (recombinant CYP3A7, testosterone probe) is on record as “mixed competitive inhibitor”; in data set [10] (recombinant CYP3A4, testosterone probe) it was “mixed competitive inhibitor”; in [11] (recombinant CYP3A5, testosterone probe) it was “mixed competitive inhibitor”. Also, the KI uncompetitive in data set [9] (value (90% CI)) is 389.0 (266.7–610.3) μM; in [10] (value (90% CI)) it was 83.1 (67.4–102.9) μM; in [11] (value (90% CI)), 238.7 (183.2–318.9) μM. Further, the Ki in data set [11] (KI competitive, value (90% CI)) came out at 70.8 µM; in data set [11] (KI global, net value of mixed model, value (90% CI), triplicates), 182 µM.

Regarding `CCCc1nn(C)c2c(=O)[nH]c(-c3cc(S(=O)(=O)N4CCN(C)CC4)ccc3OCC)nc12` [Sildenafil, sildenafil], the pKa in data set [1] was 5.97. The Km is 15 µM in data set [12]; 5.71 µM in data set [2] (read-out: KM CYP3A7 DMS, DMS formation); 27 µM in [13] (read-out: KM CYP2C9 DMS); 15 µM in data set [5] (read-out: KM CYP3A4 DMS, DMS formation, ref [27]); 14.7 µM in data set [6] (read-out: KM CYP3A5 DMS, DMS formation, ref [27]). Moreover, the “Sildenafil AUC Observed” value in data set [3] (10 mg i.v. bolus, adults with pulmonary arterial hypertension, AUC0–τ (8 hours), ref [49]) is 330 ng·h/mL; in data set [3] (25 mg single oral dose, healthy men, AUC0–∞, ref [47]), 361 ng·h/mL; in data set [3] (25 mg/25-minute infusion i.v., healthy adult men, AUC0–∞, ref [13]), 971 ng·h/mL; in data set [3] (50 mg single oral dose, healthy men, AUC0–∞, ref [47]), 738 ng·h/mL; in data set [3] (50 mg/50-minute infusion i.v., healthy men, AUC0–∞, ref [47]), 1291 ng·h/mL; in data set [3] (80 mg p.o. t.i.d. after 20 mg t.i.d. for 3 days, healthy men, AUC0–τ, ref [48]), 1720 ng·h/mL. In addition, the “Sildenafil AUC Observed” value in data set [3] (100 mg single oral dose, healthy men, AUC0–∞, ref [47]) was 1685 ng·h/mL; in data set [3] (200 mg single oral dose, healthy men, AUC0–∞, ref [47]) it was 3755 ng·h/mL. The “Sildenafil CL Observed” value in data set [3] (Healthy adults, PopPK, mean (inter-individual variability), ref [50]) is 29.5 (31.2%)^d liters/hour; in data set [3] (Patients with PAH, 10 mg i.v. bolus, ref [49]), 32.2 (N/A)^c liters/hour; in data set [17] (Preterm infants, ref [21]), 27.8 (33.3%)^b,e liters/hour; in data set [17] (Term neonates, ref [19]), 24.7 (54.7%)^b,f liters/hour. Also, the “Sildenafil Vss Observed” value in [3] (Healthy adults, PopPK, ref [50]) is given as 107 (N/A)^d liters; in data set [3] (Patients with PAH, reported as terminal phase volume (Vz), ref [49]), 137 (N/A)^c liters; in [17] (Preterm infants, ref [21]), 144 (N/A)^b,e liters; in data set [17] (Term neonates, ref [19]), 456 (N/A)^b,f liters. The “fu, predominant plasma binding protein” value in data set [4] is 0.04 (AAG). The “protein binding of sildenafil” value in data set [4] (infants, ref [20]) is recorded as 93.9%. Further, in data set [13], the “Vmax CYP2C9 DMS” value is 78 pmol/min/mg. Further, in [14] (11 infants 2–121 days old, 3 with fluconazole, nasogastric tube, ref [20]), the “decrease in sildenafil clearance by fluconazole” value is 47%. The “decrease in sildenafil CL by fluconazole” value in [14] (34 preterm infants, 4 with fluconazole, ref [21]) is 59%. Also, the “unbound inhibition of in vitro phosphodiesterase type 5 activity” value is reported as 53% in [15] (at steady-state Cmax 47 ng/mL), 77% in data set [15] (at steady-state Cmax 140 ng/mL) and 90% in [15] (at steady-state Cmax 373 ng/mL). Further, in [16], the “efficacy of the low dose” value was “ineffective”. Also, the “sildenafil clearance (CL)” value is 2.58 L/h in data set [17] (7 days of age, ref [19]) and 0.84 L/h in [17] (day 1, ref [19]). Also, the “Vss in full-term neonates, not scaled” value in data set [17] (full-term neonates, ref [20]) is 22.4 L. For the same compound, the “Vmax CYP3A4 DMS” value in data set [5] (DMS formation, ref [27]) is reported as 1.00 pmol/min/pmol. Besides, the “concentration of half-maximal effect, pulmonary vascular resistance” value in data set [18] was 17 ng/mL. Besides, the “concentration that produces the maximal effect, pulmonary vascular resistance” value in [18] is reported as “around 100 ng/mL”.
